Experiments:
[1] = tested on: A375 (human amelanotic melanoma) cells; experiment: Cell uptake inhibition studies in A375 cells with competing σ ligands; type: cell-based; details: 15 min
Method: A375 (human amelanotic melanoma) cells were purchased from American Type Culture Collection (Manassas, VA, USA) and cultured in RPMI-1640 medium (Sigma-Aldrich, St. Louis, MO, USA) supplemented with 10% foetal calf serum (Invitrogen, CA, USA) and 2 mM L-glutamine (Sigma). Cells were maintained in 175 cm^2 flasks in at 37°C in 5% CO2:95% atmosphere humidified incubator and grown to sub-confluent monolayers before being detached using trypsin for use in animal models.
Cells were prepared as described for uptake studies. Prior to the addition of the radiotracer, 400 μL of blocking drug (6.25 μmol/L in PBS) or PBS (for controls) was added to the wells. Freshly prepared radiotracer (0.37 MBq in 100 μL) was added, and the cells were incubated at 37°C for 15 min as the optimal time previously determined by the cell uptake studies. Uptake was terminated as described for uptake studies. The percentage of uptake in the treatment groups relative to the control group was determined.

[2] = Biodistribution studies in A375 tumour-bearing mice; type: in vivo, Balb/C nude mice; details: for Biodistribution, Blood / Biodistribution, Brain / Biodistribution, Femur / Biodistribution, Heart / Biodistribution, Kidneys / Biodistribution, Liver / Biodistribution, Lungs / Biodistribution, Ovaries / Biodistribution, Pancreas / Biodistribution, Spleen / Biodistribution, Tumour: i.v., ± SEM, n = 5
Method: Female Balb/C nude mice aged 5 to 6 weeks old were obtained from the Animal Resource Centre (Perth, Australia). The animals were kept at a constant temperature of 22°C ± 2°C on a 12/12 h light/dark cycle with lights on at 09:00 am. Food and water were freely available. After a week of acclimatisation, mice were injected subcutaneously in the left flank with 1 × 10^6 A375 human amelanotic melanoma cells, in 100 μL of Ca^2+/Mg^2+-free phosphate buffered saline. The procedure was performed without anaesthetic. For in vivo studies, A375 tumour-bearing mice were used 26 days after tumour inoculation.
Tumour-bearing mice were used to examine the tissue distribution of radioactivity after intravenous injection into the tail vein of 1 MBq of ^18F-SIG343 or ^18F-SIG353 in 100 μL of saline. At 15, 30, 60, and 120 min post injection of the radiotracer, groups of mice (n = 5) were sacrificed by CO2 administration followed by cervical […] and dissection. Selected organs were weighed, and the radioactivity was measured using a γ-counter. The percentage of injected dose (%ID) was calculated by comparison with suitable dilutions of the injected dose. Radioactivity concentrations were expressed as percentage of injected dose per gram of wet tissue (%ID/g), assuming a uniform density of 1 g/cm^3. Data were corrected for the radioactivity decay and tail injected dose and normalised for the standard mouse body weight (20 g). The remaining activity in the carcass was also determined in order to obtain the total activity in the mouse (background activity) at each time point.
Selected tumour-to-organ (tumour-to-blood and tumour-to-muscle) uptake ratios (TORs), were calculated by dividing the tumour radioactivity concentration (%ID/g) by the radioactivity concentration in the respective organ at time t. Comparisons of organ radioactivity concentrations (%ID/g) and TORs in the biodistribution studies or %ID/cc in PET imaging studies between the two radiotracers were performed using separate unpaired, two-tailed Student's t tests, matched organs and time points.

[3] = PET/CT imaging studies in A375 tumour-bearing mice; type: in vivo; details: 120-min PET scan
Method: The mouse was anaesthetised via inhalant isoflurane (Forthane, Abbott Laboratories, IL, USA) (5% induction, 1% to 3% maintenance in 200 mL/min oxygen). Respiration and heart rates of the animal were monitored (BioVet; m2m Imaging Corp, Cleveland, OH, USA) during the entire scanning period. The core body temperature of the animals was maintained via a temperature-controlled heating pad. The mouse was injected intravenously with 4.6 to 16.7 MBq of ^18F-SIG343 or ^18F-SIG353, with a constant mass of the unlabelled compounds of 0.06 nmol in 100 μL of saline (n = 3). A 120-min PET scan was performed on an Inveon multimodality positron emission tomography-computed tomography (PET/CT) system (Siemens Medical Solutions, Knoxville, TN, USA) followed by a 10-min CT scan on each subject for anatomical information. Image acquisition commenced simultaneously with radiotracer injection. The data was histogrammed into 25 consecutive frames, and activity volumes were reconstructed with an iterative reconstruction (OSEM/MAP) including attenuation and scatter correction, achieving a reconstructed spatial resolution of 1.5 mm. […] Regional activity data (Bq/cc) were extracted from nine selected volumes/regions of interest (VOIs/ROIs) where σ receptor distribution was reported and the tail and expressed as percentage of injected dose per cubic centimetres (%ID/cc).

## COc1cc2c(cc1OC)CN(CCCCN1C(=O)c3ccc([18F])cc3C1=O)CC2 [^18F-SIG343]
[1]; competitor (+)-pentazocine 5 μM
  Change of cell uptake of radiotracer versus control: no significant blocking effect
[1]; competitor haloperidol 5 μM
  Change of cell uptake of radiotracer versus control: -72%
[1]; competitor unlabelled SIG343 5 μM
  Change of cell uptake of radiotracer versus control: -69%
[2]; 15 min post injection
  Biodistribution, Blood: 0.9 ± 0.1 %ID/g
  Biodistribution, Brain: 9.6 ± 0.2^ *** %ID/g
  Biodistribution, Femur: 4.5 ± 0.4 %ID/g
  Biodistribution, Heart: 5.5 ± 0.4 %ID/g
  Biodistribution, Kidneys: 26.1 ± 0.6 %ID/g
  Biodistribution, Liver: 16.0 ± 0.9^ ** %ID/g
  Biodistribution, Lungs: 30.3 ± 1.2^ *** %ID/g
  Biodistribution, Ovaries: 10.8 ± 1.8 %ID/g
  Biodistribution, Pancreas: 42.9 ± 2.8^ * %ID/g
  Biodistribution, Spleen: 14.6 ± 1.2 %ID/g
  Biodistribution, Tumour: 3.1 ± 0.5 %ID/g
[2]; 30 min post injection
  Biodistribution, Blood: 0.7 ± 0.04 %ID/g
  Biodistribution, Brain: 8.8 ± 0.6^ *** %ID/g
  Biodistribution, Femur: 4.3 ± 0.2 %ID/g
  Biodistribution, Heart: 3.5 ± 0.2^ ** %ID/g
  Biodistribution, Kidneys: 19.8 ± 0.9^ *** %ID/g
  Biodistribution, Liver: 21.9 ± 0.8^ *** %ID/g
  Biodistribution, Lungs: 17.4 ± 0.7^ *** %ID/g
  Biodistribution, Ovaries: 14.0 ± 2.2 %ID/g
  Biodistribution, Pancreas: 50.2 ± 2.0^ *** %ID/g
  Biodistribution, Spleen: 15.2 ± 1.1^ * %ID/g
  Biodistribution, Tumour: 3.0 ± 0.1^ * %ID/g
[2]; 60 min post injection
  Biodistribution, Blood: 0.6 ± 0.1 %ID/g
  Biodistribution, Brain: 7.1 ± 0.4^ *** %ID/g
  Biodistribution, Femur: 3.8 ± 0.1 %ID/g
  Biodistribution, Heart: 1.9 ± 0.04^ ** %ID/g
  Biodistribution, Kidneys: 12.0 ± 0.6^ ** %ID/g
  Biodistribution, Liver: 15.2 ± 1.1^ *** %ID/g
  Biodistribution, Lungs: 9.9 ± 0.3^ *** %ID/g
  Biodistribution, Ovaries: 13.5 ± 2.2 %ID/g
  Biodistribution, Pancreas: 64.4 ± 3.5^ *** %ID/g
  Biodistribution, Spleen: 12.8 ± 0.9^ *** %ID/g
  Biodistribution, Tumour: 3.5 ± 0.3^ * %ID/g
[2]; 120 min post injection
  Biodistribution, Blood: 0.4 ± 0.01 %ID/g
  Biodistribution, Brain: 5.2 ± 0.7^ *** %ID/g
  Biodistribution, Femur: 3.2 ± 0.1 %ID/g
  Biodistribution, Heart: 1.1 ± 0.1 %ID/g
  Biodistribution, Kidneys: 7.5 ± 0.4 %ID/g
  Biodistribution, Liver: 19.8 ± 0.9^ * %ID/g
  Biodistribution, Lungs: 5.0 ± 0.3 %ID/g
  Biodistribution, Ovaries: 11.5 ± 1.4 %ID/g
  Biodistribution, Pancreas: 61.7 ± 3.4^ *** %ID/g
  Biodistribution, Spleen: 8.5 ± 0.2^ *** %ID/g
  Biodistribution, Tumour: 3.9 ± 0.2 %ID/g
[2]; at 120 min
  Tumour-to-blood uptake ratio: eight- to ninefold
  Tumour-to-muscle uptake ratio: 4
[3]
  Tumour uptake by PET imaging: 0.9 %ID/cc

## COc1cc2c(cc1OC)CN(CCCCCN1C(=O)c3ccc([18F])cc3C1=O)CC2 [^18F-SIG353]
[1]; any of the competing σ ligands ((+)-pentazocine, haloperidol, unlabelled SIG353) 5 μM
  Change of cell uptake of radiotracer versus control: not significantly reduced
[2]; 15 min post injection
  Biodistribution, Blood: 1.2 ± 0.03 %ID/g
  Biodistribution, Brain: 4.4 ± 0.2 %ID/g
  Biodistribution, Femur: 5.3 ± 0.3 %ID/g
  Biodistribution, Heart: 4.5 ± 0.2 %ID/g
  Biodistribution, Kidneys: 23.4 ± 2.0 %ID/g
  Biodistribution, Liver: 23.5 ± 2.0 %ID/g
  Biodistribution, Lungs: 17.4 ± 0.5 %ID/g
  Biodistribution, Ovaries: 10.0 ± 0.9 %ID/g
  Biodistribution, Pancreas: 56.4 ± 4.7 %ID/g
  Biodistribution, Spleen: 15.7 ± 1.1 %ID/g
  Biodistribution, Tumour: 3.8 ± 0.3 %ID/g
[2]; 30 min post injection
  Biodistribution, Blood: 1.0 ± 0.1 %ID/g
  Biodistribution, Brain: 2.3 ± 0.1 %ID/g
  Biodistribution, Femur: 4.7 ± 0.2 %ID/g
  Biodistribution, Heart: 2.5 ± 0.1 %ID/g
  Biodistribution, Kidneys: 13.3 ± 0.8 %ID/g
  Biodistribution, Liver: 33.0 ± 1.8 %ID/g
  Biodistribution, Lungs: 8.6 ± 0.4 %ID/g
  Biodistribution, Ovaries: 11.8 ± 1.5 %ID/g
  Biodistribution, Pancreas: 72.8 ± 2.4 %ID/g
  Biodistribution, Spleen: 12.0 ± 0.6 %ID/g
  Biodistribution, Tumour: 3.8 ± 0.3 %ID/g
[2]; 60 min post injection
  Biodistribution, Blood: 0.7 ± 0.02 %ID/g
  Biodistribution, Brain: 1.3 ± 0.01 %ID/g
  Biodistribution, Femur: 3.8 ± 0.2 %ID/g
  Biodistribution, Heart: 1.7 ± 0.02 %ID/g
  Biodistribution, Kidneys: 8.7 ± 0.3 %ID/g
  Biodistribution, Liver: 32.6 ± 1.0 %ID/g
  Biodistribution, Lungs: 6.1 ± 0.1 %ID/g
  Biodistribution, Ovaries: 9.6 ± 1.5 %ID/g
  Biodistribution, Pancreas: 94.3 ± 4.2 %ID/g
  Biodistribution, Spleen: 7.7 ± 0.4 %ID/g
  Biodistribution, Tumour: 4.6 ± 0.2 %ID/g
[2]; 120 min post injection
  Biodistribution, Blood: 0.7 ± 0.03 %ID/g
  Biodistribution, Brain: 0.8 ± 0.02 %ID/g
  Biodistribution, Femur: 3.9 ± 0.1 %ID/g
  Biodistribution, Heart: 1.3 ± 0.1 %ID/g
  Biodistribution, Kidneys: 7.1 ± 0.2 %ID/g
  Biodistribution, Liver: 24.1 ± 1.4 %ID/g
  Biodistribution, Lungs: 4.7 ± 0.2 %ID/g
  Biodistribution, Ovaries: 12.2 ± 3.1 %ID/g
  Biodistribution, Pancreas: 119.2 ± 1.6 %ID/g
  Biodistribution, Spleen: 5.5 ± 0.2 %ID/g
  Biodistribution, Tumour: 4.8 ± 0.4 %ID/g
[2]; at 120 min
  Tumour-to-blood uptake ratio: eight- to ninefold
[3]
  Tumour uptake by PET imaging: 1.3 %ID/cc
